The values below come from patent US11161856B2 (H. Lundbeck A/S, priority 2017, dated 2021).

Assay [1] deals with T1, MGLL (Mus musculus, UniProt O35678).
T1 construct: Brain; from tissue; host or cells: mouse brain proteome
T1 sequence (O35678 1-303): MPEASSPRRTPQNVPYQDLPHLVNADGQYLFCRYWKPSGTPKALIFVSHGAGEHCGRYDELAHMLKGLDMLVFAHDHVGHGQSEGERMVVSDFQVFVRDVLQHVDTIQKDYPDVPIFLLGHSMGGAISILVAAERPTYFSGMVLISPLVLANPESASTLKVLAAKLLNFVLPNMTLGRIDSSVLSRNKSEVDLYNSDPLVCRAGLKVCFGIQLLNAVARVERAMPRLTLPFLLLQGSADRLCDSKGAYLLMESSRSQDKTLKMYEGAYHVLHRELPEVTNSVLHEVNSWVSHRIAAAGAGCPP
Description: In vitro competitive activity-based protein profiling, mouse brain proteome (MGLL). The settings on record: concentration not given (μM). The assay is classed as biochemical.

Assay [2] has as its target T2, ABHD6 (Mus musculus, UniProt Q8R2Y0).
T2 construct: Brain; from tissue; host or cells: mouse brain proteome
T2 sequence (Q8R2Y0 1-336): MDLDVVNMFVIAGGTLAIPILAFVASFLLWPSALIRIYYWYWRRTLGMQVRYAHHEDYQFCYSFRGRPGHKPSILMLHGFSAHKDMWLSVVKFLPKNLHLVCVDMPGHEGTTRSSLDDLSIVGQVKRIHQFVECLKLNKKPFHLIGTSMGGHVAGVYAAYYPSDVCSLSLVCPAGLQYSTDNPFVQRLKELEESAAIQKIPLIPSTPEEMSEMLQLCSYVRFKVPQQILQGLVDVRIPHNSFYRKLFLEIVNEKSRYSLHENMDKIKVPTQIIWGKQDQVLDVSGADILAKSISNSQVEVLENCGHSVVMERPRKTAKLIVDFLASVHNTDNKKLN
Description: In vitro competitive activity-based protein profiling, mouse brain proteome (ABHD6). It counts as biochemical. Particulars: mouse brain proteome; concentration not given (μM). On the procedure: [The source words this procedure for another target and reports this target under the same test.] In Vitro Competitive Activity-Based Protein Profiling.
Proteomes (human prefrontal cortex or cell membrane fractions) (50 μL, 1.0 mg/mL total protein concentration) were preincubated with varying concentrations of inhibitors at 37° C. After 30 min, FP-Rh or HT-01 (1.0 μL, 50 μM in DMSO) was added and the mixture was incubated for another 30 min at room temperature. Reactions were quenched with SDS loading buffer (15 μL-4×) and run on SDS-PAGE.

Regarding `O=C(OC(C(F)(F)F)C(F)(F)F)N1CC2(CCN(Cc3ccc(N4CCOCC4)cc3)CC2)C1` [Example 65, 1,1,1,3,3,3-Hexafluoropropan-2-yl 7-(4-morpholinobenzyl)-2,7-diazaspiro[3.5]nonane-2-carboxylate], the “% Inh MGLL Brain (Mouse, μM)” value in assay [1] is listed as “### (### is ≥75%)”. Further, the “% Inh ABHD6 Brain (Mouse, μM)” value in assay [2] is reported as “### (### is ≥75%)”.

Take `O=C(OC(C(F)(F)F)C(F)(F)F)N1CCC2(CC1)CN(Cc1ccc(Cl)c(Cl)c1)C2` [Example 67, 1,1,1,3,3,3-Hexafluoropropan-2-yl 2-(3,4-dichlorobenzyl)-2,7-diazaspiro[3,5]nonane-7-carboxylate]: the “% Inh MGLL Brain (Mouse, μM)” value in assay [1] is recorded as “### (### is ≥75%)”. In addition, the “% Inh ABHD6 Brain (Mouse, μM)” value in assay [2] was “### (### is ≥75%)”.

With `Cc1cc(-c2ccccc2)ccc1CN1CC2(CCN(C(=O)OC(C(F)(F)F)C(F)(F)F)CC2)C1` [Example 68, 1,1,1,3,3,3-Hexafluoropropan-2-yl 2-((3-methyl-[1,1'-biphenyl]-4-yl)methyl)-2,7-diazaspiro[3,5]nonane-7-carboxylate], in assay [1], the “% Inh MGLL Brain (Mouse, μM)” value is listed as “### (### is ≥75%)”. Also, the “% Inh ABHD6 Brain (Mouse, μM)” value in assay [2] was “### (### is ≥75%)”.

Turning to `O=C(OC(C(F)(F)F)C(F)(F)F)N1CCC2(CC1)CN(Cc1ccc(C(F)(F)F)cc1)C2` [Example 69, 1,1,1,3,3,3-Hexafluoropropan-2-yl 2-(4-(trifluoromethyl)benzyl)-2,7-diazaspiro[3,5]nonane-7-carboxylate], the “% Inh MGLL Brain (Mouse, μM)” value in assay [1] is “### (### is ≥75%)”. Moreover, the “% Inh ABHD6 Brain (Mouse, μM)” value in assay [2] is reported as “### (### is ≥75%)”.

Consider `O=C(OC(C(F)(F)F)C(F)(F)F)N1CC2(CCN(Cc3ccc(N4CCOCC4)cc3Cl)CC2)C1` [Example 70, 1,1,1,3,3,3-Hexafluoropropan-2-yl 7-(2-chloro-4-morpholinobenzyl)-2,7-diazaspiro[3.5]nonane-2-carboxylate], for which the “% Inh MGLL Brain (Mouse, μM)” value in assay [1] is given as “### (### is ≥75%)”. For the same molecule, the “% Inh ABHD6 Brain (Mouse, μM)” value in assay [2] is listed as “### (### is ≥75%)”.

Take `Cc1cc(N2CCOCC2)ccc1CN1CCC2(CC1)CN(C(=O)OC(C(F)(F)F)C(F)(F)F)C2` [Example 71, 1,1,1,3,3,3-Hexafluoropropan-2-yl 7-(2-methyl-4-morpholinobenzyl)-2,7-diazaspiro[3.5]nonane-2-carboxylate]: in assay [1], the “% Inh MGLL Brain (Mouse, μM)” value is reported as “### (### is ≥75%)”. Besides, in assay [2], the “% Inh ABHD6 Brain (Mouse, μM)” value is on record as “### (### is ≥75%)”.

`CN(Cc1ccc(C(F)(F)F)cc1N1CCCC1)C1(C)CCN(C(=O)OC(C(F)(F)F)C(F)(F)F)CC1` [Example 72, 1,1,1,3,3,3-Hexafluoropropan-2-yl 4-methyl-4-(methyl(2-(pyrrolidin-1-yl)-4-(trifluoromethyl)benzyl)amino) piperidine-1-carboxylate]: the “% Inh MGLL Brain (Mouse, μM)” value in assay [1] is “### (### is ≥75%)”. Further, the “% Inh ABHD6 Brain (Mouse, μM)” value in assay [2] is on record as “# (# is ≤25%)”.

In the case of `O=C(OC(C(F)(F)F)C(F)(F)F)N1CCC2(CC1)CN(Cc1ccc(CN3CCOCC3)cc1)C2` [Example 73, 1,1,1,3,3,3-Hexafluoropropan-2-yl 2-(4-(morpholinomethyl)benzyl)-2,7-diazaspiro[3.5]nonane-7-carboxylate], the “% Inh MGLL Brain (Mouse, μM)” value in assay [1] is listed as “### (### is ≥75%)”. Also, the “% Inh ABHD6 Brain (Mouse, μM)” value in assay [2] was “### (### is ≥75%)”.

Regarding `O=C(O)C1CCN(c2ccc(CN3CC4(CCN(C(=O)OC(C(F)(F)F)C(F)(F)F)CC4)C3)cc2)CC1` [Example 74, 1-(4-((7-(((1,1,1,3,3,3-Hexafluoropropan-2-yl)oxy)carbonyl)-2,7-diazaspiro[3.5]nonan-2-yl)methyl)phenyl)piperidine-4-carboxylic acid], the “% Inh MGLL Brain (Mouse, μM)” value in assay [1] was “# (# is ≤25%)”. Besides, the “% Inh ABHD6 Brain (Mouse, μM)” value in assay [2] is “### (### is ≥75%)”.

Regarding `O=C(OC(C(F)(F)F)C(F)(F)F)N1CC2(CCN(Cc3ccc(Cl)cc3)CC2)C1` [Example 75, 1,1,1,3,3,3-Hexafluoropropan-2-yl 7-(4-chlorobenzyl)-2,7-diazaspiro[3.5]nonane-2-carboxylate], the “% Inh MGLL Brain (Mouse, μM)” value in assay [1] is “### (### is ≥75%)”. Further, in assay [2], the “% Inh ABHD6 Brain (Mouse, μM)” value was “### (### is ≥75%)”.

Consider `CN(Cc1cc(N2CCCC2)cc(C(F)(F)F)c1)C1(C)CCN(C(=O)OC(C(F)(F)F)C(F)(F)F)CC1` [Example 76, 1,1,1,3,3,3-Hexafluoropropan-2-yl 4-methyl-4-(methyl(3-(pyrrolidin-1-yl)-5-(trifluoromethyl)bcnzyl)amino) piperidine-1-carboxylate], for which the “% Inh MGLL Brain (Mouse, μM)” value in assay [1] is reported as “### (### is ≥75%)”. For the same molecule, the “% Inh ABHD6 Brain (Mouse, μM)” value in assay [2] is reported as “# (# is ≤25%)”.

Turning to `O=C(OC(C(F)(F)F)C(F)(F)F)N1CC2(CCN(Cc3cccc(N4CCCC4)c3)CC2)C1` [Example 77, 1,1,1,3,3,3-Hexafluoropropan-2-yl 7-(3-(pyrrolidin-1-yl)benzyl)-2,7-diazaspiro[3.5]nonane-2-carboxylate], the “% Inh MGLL Brain (Mouse, μM)” value in assay [1] was “## (## is between 25 and 75%)”. Also, the “% Inh ABHD6 Brain (Mouse, μM)” value in assay [2] was “### (### is ≥75%)”.

Turning to `O=C(OC(C(F)(F)F)C(F)(F)F)N1CCC2(CC1)CN(Cc1cccc(Oc3ccccc3)c1)C2` [Example 78, 1,1,1,3,3,3-Hexafluoropropan-2-yl 2-(3-phenoxybenzyl)-2,7-diazaspiro[3.5]nonane-7-carboxylate], the “% Inh MGLL Brain (Mouse, μM)” value in assay [1] is “### (### is ≥75%)”. Besides, the “% Inh ABHD6 Brain (Mouse, μM)” value in assay [2] was “### (### is ≥75%)”.

On to `O=C(OC(C(F)(F)F)C(F)(F)F)N1CCC2(CC1)CN(Cc1ccc(N3CCOCC3)cc1Cl)C2` [Example 79, 1,1,1,3,3,3-Hexafluoropropan-2-yl 2-(2-chloro-4-morpholinobenzyl)-2,7-diazaspiro[3.5]nonane-7-carboxylate], for which the “% Inh MGLL Brain (Mouse, μM)” value in assay [1] is reported as “### (### is ≥75%)”. For the same molecule, the “% Inh ABHD6 Brain (Mouse, μM)” value in assay [2] is reported as “### (### is ≥75%)”.

As to `O=C(OC(C(F)(F)F)C(F)(F)F)N1CCC2(CC1)CN(Cc1ccc(N3CCCC3)cc1)C2` [Example 80, 1,1,1,3,3,3-Hexafluoropropan-2-yl 2-(4-(pyrrolidin-1-yl)benzyl)-2,7-diazaspiro[3.5]nonane-7-carboxylate], the “% Inh MGLL Brain (Mouse, μM)” value in assay [1] is recorded as “### (### is ≥75%)”. Besides, the “% Inh ABHD6 Brain (Mouse, μM)” value in assay [2] is on record as “# (# is ≤25%)”.

With `O=C(OC(C(F)(F)F)C(F)(F)F)N1CCC2(CC1)CN(Cc1ccc(N3CCOCC3)cc1)C2` [Example 81, 1,1,1,3,3,3-Hexafluoropropan-2-yl 2-(4-morpholinobenzyl)-2,7-diazaspiro[3.5]nonane-7-carboxylate], the “% Inh MGLL Brain (Mouse, μM)” value in assay [1] was “### (### is ≥75%)”. Moreover, the “% Inh ABHD6 Brain (Mouse, μM)” value in assay [2] is listed as “### (### is ≥75%)”.

With `Cc1cc(N2CCOCC2)ccc1CN1CC2(CCN(C(=O)OC(C(F)(F)F)C(F)(F)F)CC2)C1` [Example 82, 1,1,1,3,3,3-Hexafluoropropan-2-yl 2-(2-methyl-4-morpholinobenzyl)-2,7-diazaspiro[3.5]nonane-7-carboxylate], the “% Inh MGLL Brain (Mouse, μM)” value in assay [1] is listed as “### (### is ≥75%)”. Further, the “% Inh ABHD6 Brain (Mouse, μM)” value in assay [2] was “### (### is ≥75%)”.

With `Cc1ccc(CN2CC3(CCN(C(=O)OC(C(F)(F)F)C(F)(F)F)CC3)C2)cc1` [Example 84, 1,1,1,3,3,3-Hexafluoropropan-2-yl 2-(4-methylbenzyl)-2,7-diazaspiro[3.5]nonane-7-carboxylate], the “% Inh MGLL Brain (Mouse, μM)” value in assay [1] is recorded as “### (### is ≥75%)”. Moreover, the “% Inh ABHD6 Brain (Mouse, μM)” value in assay [2] is on record as “### (### is ≥75%)”.
